Laboratory results from BindingDB's records for doi:10.7270/Q2GH9GBT (Nmmlsc, 2008).
Counter-ions that a name gives are not always drawn.

The molecules below were run against T1, Bcl-2-like protein 10 [11-204] (Homo sapiens, UniProt Q9HD36) (assay: modulators of Bcl-B/Bim peptide interaction – biochemical, multiplexed, bead-based flow cytometry, human, dose response (AID 1327)). Settings: not given.
T1 construct: 11-204
T1 sequence (Q9HD36 whole entry): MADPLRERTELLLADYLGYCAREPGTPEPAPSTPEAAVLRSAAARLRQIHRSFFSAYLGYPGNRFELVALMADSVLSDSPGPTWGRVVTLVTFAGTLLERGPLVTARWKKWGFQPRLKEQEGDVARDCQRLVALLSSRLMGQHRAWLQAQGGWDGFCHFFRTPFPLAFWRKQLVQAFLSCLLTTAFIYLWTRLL

| Compound | EC50 |
| --- | --- |
| COc1cc(C=NNC(=O)CN(Cc2ccco2)S(=O)(=O)c2ccccc2)ccc1O [N-(2-furanylmethyl)-N-[2-[[(E)-(3-methoxy-4-oxo-1-cyclohexa-2,5-dienylidene)methyl]hydrazo]-2-oxoethyl]benzenesulfonamide] | 7.81 µM |
| Cc1cc(N)ccc1N1CCCC1 [3-methyl-4-(1-pyrrolidinyl)aniline;hydrochloride] | 2.13 µM |
| Clc1ccc2c(N=NCc3ccccc3Br)ccnc2c1 [MLS000336087] | 9.57 µM |
| O=S1(=O)N=C(N(CCO)N=Cc2ccncc2)c2ccccc21 [MLS000682942] | 11.8 µM |
| O=c1c2c(n3nnnc3n1Cc1ccccc1)-c1ccccc1CC21CCCC1 [MLS000030575] | 5.52 µM |
| Clc1ccc2c(N=NCc3ccc(Br)cc3)ccnc2c1 [N-[(4-bromophenyl)methylideneamino]-7-chloranyl-quinolin-4-amine] | 20.9 µM |
| CN(C)[C@@H]1C(=O)C(C(=O)NCN2CCCC2)C(=O)[C@@]2(O)C(=O)C3C(=O)c4c(O)cccc4[C@@](C)(O)C3CC12 (stereo partly drawn) [(2Z,4S,6S,12aS)-4-(dimethylamino)-6,10,11,12a-tetrahydroxy-2-[hydroxy-(1-pyrrolidinylmethylamino)methylidene]-6-methyl-4,4a,5,5a-tetrahydrotetracene-1,3,12-trione] | 14.3 µM |
| Clc1nc(NCc2cccnc2)nc(N2CCOCC2)n1 [MLS000121154] | 8.51 µM |
| COc1ccc(CC(=O)Nc2ccc(-c3nc4cc(C)ccc4o3)c(O)c2)cc1OC [2-(3,4-dimethoxyphenyl)-N-[(4Z)-3-keto-4-(5-methyl-3H-1,3-benzoxazol-2-ylidene)cyclohexa-1,5-dien-1-yl]acetamide] | 14.8 µM |
| Cc1cccc(OCC(=O)NCC(=O)NN=Cc2cc(Br)ccc2OCc2ccccc2)c1 [N-[(5-bromanyl-2-phenylmethoxy-phenyl)methylideneamino]-2-[2-(3-methylphenoxy)ethanoylamino]ethanamide] | 5.53 µM |
| Nc1ccc(N2CCN(CCCCN3C(=O)C4CCCN4C3=O)CC2)cc1 (stereo not given) [2-[4-[4-(4-aminophenyl)-1-piperazinyl]butyl]-5,6,7,7a-tetrahydropyrrolo[1,2-c]imidazole-1,3-dione;hydrate;hydrochloride] | 52.5 µM |
| OCCN1CCN(CCCc2c3c(cc4c2CCC4)CCC3)CC1 [MLS000698424] | 15.5 µM |
| COc1cccc2c(SCC(=O)NN=Cc3ccc(O)cc3O)cc(C)nc12 [N'-[(E)-(2-hydroxy-4-oxo-1-cyclohexa-2,5-dienylidene)methyl]-2-[(8-methoxy-2-methyl-4-quinolinyl)thio]acetohydrazide] | 9.13 µM |
| COc1cc(CN=Nc2nn3cnnc3c3ccccc23)ccc1O [(4E)-2-methoxy-4-[[2-([1,2,4]triazolo[3,4-a]phthalazin-6-yl)hydrazinyl]methylidene]cyclohexa-2,5-dien-1-one] | 1.07 µM |
| COc1cccc(CN=Nc2nn3cnnc3c3ccccc23)c1 [N-[1-(3-Methoxy-phenyl)-meth-(E)-ylidene]-N'-[1,2,4]triazolo[3,4-a]phthalazin-6-yl-hydrazine] | 0.98 µM |
| COc1ccccc1Nc1nc(-c2c(C)nc3ncccn23)cs1 [(2-methoxyphenyl)-[4-(2-methylimidazo[1,2-a]pyrimidin-3-yl)thiazol-2-yl]amine;hydrobromide] | 0.82 µM |
| Cc1nc2ncccn2c1-c1csc(Nc2ccc(O)cc2)n1 | 0.12 µM |
| COc1ccccc1Cn1nnc2c(=O)[nH]c(C3CCN(C(=O)c4ccc(C)cc4)CC3)nc21 [3-[(2-methoxyphenyl)methyl]-5-[1-(4-methylphenyl)carbonylpiperidin-4-yl]-2H-[1,2,3]triazolo[4,5-d]pyrimidin-7-one] | 12.2 µM |

Same assay, conditions: inactive by the depositor's call

| Compound | EC50 |
| --- | --- |
| Cc1cc(OCc2cn3cccnc3n2)ccc1Cl [2-[(4-chloranyl-3-methyl-phenoxy)methyl]imidazo[1,2-a]pyrimidine] | 17.3 µM |
| O=C(NCCCN1CCN(CCCNC(=O)c2cc([N+](=O)[O-])ccc2Cl)CC1)c1cc([N+](=O)[O-])ccc1Cl [2-chloranyl-N-[3-[4-[3-[(2-chloranyl-5-nitro-phenyl)carbonylamino]propyl]piperazin-1-yl]propyl]-5-nitro-benzamide] | 43.4 µM |
| CCOC(=O)c1nc(Nc2ccc(C(=O)OC)cc2)c2ccccc2n1 [ethyl 4-(4-methoxycarbonylanilino)quinazoline-2-carboxylate] | 11.2 µM |
| Cc1nnc2ccc(-c3cccc(NC(=O)c4ccco4)c3)nn12 [SMR000324305] | 3.53 µM |
| O=S1(=O)N=C(N(CCO)N=Cc2ccccc2)c2ccccc21 [2-[(benzylideneamino)-(1,1-dioxo-1,2-benzothiazol-3-yl)amino]ethanol] | 12.8 µM |
| Cc1cc(C)cc(NS(=O)(=O)c2ccc3c(c2)c(=O)n(C)c(=O)n3C)c1 [MLS000521783] | 17.4 µM |
| Cc1nc2ncccn2c1-c1csc(Nc2ccccc2)n1 [4-(2-methyl-3-imidazo[1,2-a]pyrimidinyl)-N-phenyl-2-thiazolamine] | 1.38 µM |
| CN(N=Cc1ccncc1)C1=NS(=O)(=O)c2ccccc21 [isonicotinaldehyde (1,1-dioxido-1,2-benzisothiazol-3-yl)(methyl)hydrazone] | 1.82 µM |
| O=S1(=O)N=C(N(CCO)N=C/C=C/c2ccccc2)c2ccccc21 | 11.7 µM |
| CN(N=C/C=C/c1ccccc1)C1=NS(=O)(=O)c2ccccc21 [(1E,2E)-3-phenylacrylaldehyde (1,1-dioxido-1,2-benzisothiazol-3-yl)(methyl)hydrazone] | 1.94 µM |
| Cc1cccc(C=NN(CCO)C2=NS(=O)(=O)c3ccccc32)c1 [2-[(1,1-dioxo-1,2-benzothiazol-3-yl)-[(3-methylphenyl)methylideneamino]amino]ethanol] | 38.7 µM |
| O=C(Nc1ccc2nc(-c3ccco3)c(-c3ccco3)nc2c1)NC1CC1 [SMR000118524] | 45.1 µM |
| COc1ccc(C2=Nn3c(nnc3-c3ccccn3)SC2)cc1OC [6-(3,4-dimethoxyphenyl)-3-(2-pyridinyl)-7H-[1,2,4]triazolo[3,4-b][1,3,4]thiadiazine] | 6.18 µM |
| c1ccc(-c2nc(N3CCCCCC3)c3ccccc3n2)nc1 [SMR000046752] | 16.7 µM |
| O=C1NC(=O)C2(Cc3c(nc4ccccn4c3=O)N3CCCCCC32)C(=O)N1Cc1ccccc1 (stereo not given) [MLS000083668] | 18.2 µM |
| O=C(NCc1ccccc1)c1ccc2nc(-c3ccco3)c(-c3ccco3)nc2c1 [2,3-bis(furan-2-yl)-N-(phenylmethyl)quinoxaline-6-carboxamide] | 20.6 µM |
| COc1ccccc1-n1c(-c2ccc(Cl)cc2)c[nH]c1=S [4-(4-chlorophenyl)-3-(2-methoxyphenyl)-1H-imidazole-2-thione] | 11.4 µM |
| Cc1ccc(OCc2cn3cccnc3n2)cc1 [MLS000723172] | 30.6 µM |
| Cc1cc(-c2nnc3n2N=C(c2ccc(-c4ccccc4)cc2)CS3)[nH]n1 [MLS000082991] | 36.4 µM |
| O=C(CSc1ccc2nnc(-c3ccccn3)n2n1)Nc1nccs1 [2-[[3-(2-pyridinyl)-[1,2,4]triazolo[4,3-b]pyridazin-6-yl]thio]-N-(2-thiazolyl)acetamide] | 5.54 µM |
| CC(=O)c1ccc(NC(=O)c2ccc3nc(-c4ccco4)c(-c4ccco4)nc3c2)cc1 [N-(4-acetylphenyl)-2,3-di-2-furyl-6-quinoxalinecarboxamide] | 33.7 µM |

| Compound | EC50 |
| --- | --- |
| CN(N=Cc1cccnc1)C1=NS(=O)(=O)c2ccccc21 [SMR000207578] | 20 µM |
| O=C(Nc1ccccc1)c1ccc2nc(-c3ccco3)c(-c3ccco3)nc2c1 [2,3-di-2-furyl-N-phenyl-6-quinoxalinecarboxamide] | 33.8 µM |
| CCN(CC)c1ccc(-c2nn3c(-c4ccccc4OC)nnc3s2)cc1 | 21.7 µM |
| Nc1c(C(=O)NCC2CCCO2)sc2nc3c(c(-c4ccco4)c12)CC/C3=C\c1ccco1 (stereo not given) [SMR000259502] | 13.7 µM |
| c1ccc(Nc2cccc(Nc3ccccc3)n2)cc1 [N,N'-diphenyl-2,6-pyridinediamine] | 7.82 µM |
| Nc1c(C(=O)NC2CC2)sc2nc3c(c(-c4ccco4)c12)CC/C3=C/c1ccco1 [SMR000259554] | 10.4 µM |
| COc1ccc(C)cc1-n1c(=O)c2ccccc2c2ccccc2c1=O [MLS000682999] | 15.6 µM |
| O=C(COc1ccccc1)N1CCN(c2ncnc3c2cnn3-c2ccccc2)CC1 [2-Phenoxy-1-[4-(1-phenyl-1H-pyrazolo[3,4-d]pyrimidin-4-yl)-piperazin-1-yl]-ethanone] | 19.2 µM |
| CCOC(=O)C1CCN(C(=O)Nc2ccc3nc(-c4ccco4)c(-c4ccco4)nc3c2)CC1 [MLS000113285] | 46.4 µM |
| O=C(Nc1cccc(Cl)c1)Nc1ccnc(-c2cccnc2)n1 [SMR000337179] | 1.11 µM |
| COCCCn1c(N)c(C(=O)Nc2sc3c(c2C(=O)OC)CCCC3)c2nc3ccccc3nc21 [MLS000595323] | 1.39 µM |
| Cc1ccc(C)n1-c1cccc(C(=O)O)c1 | 49.5 µM |
| Cc1ccnc(SCc2cc(=O)c(OC(=O)c3ccc(Cl)c([N+](=O)[O-])c3)co2)n1 [MLS000696790] | 6.62 µM |
| Cc1cc(C)nc(SCc2cc(=O)c(OC(=O)c3ccc(Cl)c([N+](=O)[O-])c3)co2)n1 [4-chloro-3-nitrobenzoic acid [6-[[(4,6-dimethyl-2-pyrimidinyl)thio]methyl]-4-oxo-3-pyranyl] ester] | 1.51 µM |
| Cc1ccc(C=NN(C)C2=NS(=O)(=O)c3ccccc32)o1 [N-methyl-N-[(5-methyl-2-furanyl)methylideneamino]-1,1-dioxo-1,2-benzothiazol-3-amine] | 7.38 µM |
| O=C(Nc1ccc2nc(-c3ccco3)c(-c3ccco3)nc2c1)N1CCCCCC1 | 33.3 µM |
| C#CCn1cc(C=C2C(=O)c3ccccc3C2=O)c2ccccc21 [SMR000196125] | 17.8 µM |
| CCOC(=O)c1c(O)nc2ccc(Cl)c3c2c1-c1ccccc1C3=O [MLS000704595] | 1.32 µM |
| COc1ccc(OC)c(-n2c(=O)c3ccccc3c3ccccc3c2=O)c1 [SMR000236434] | 16.4 µM |
| CCOC(=O)c1ccc(Nc2nc(C(=O)OCC)nc3ccccc23)cc1 | 2.18 µM |
| O=C(Nc1ccncc1)c1cc2ccccc2o1 [MLS000109378] | 62.1 µM |
